# Source: patent US20250161299A1, “ORAL PCLX-001 IN THE TREATMENT OF HUMAN CANCER” (PACYLEX PHARMACEUTICALS INC., priority 2022, published 2025)
# Read-outs that look alike come from different tables or passages of the source.
# Assay: Phase I trial of oral PCLX-001: plasma pharmacokinetics, noncompartmental analysis (Phoenix WinNonlin 8.3)
# Type: in vivo, human
# Settings: human, plasma, po; for half-life: read-out: Half-life (converted); for Tmax: read-out: Tmax; for AUC(0-t): read-out: AUClast or AUCtau
# Excerpt: The clinical trial is entitled “Phase I Trial of PCLX-001 in B-cell Non-Hodgkin Lymphoma and Advanced Solid Malignancies” and registered at clinicaltrials.gov as NCT04836195. It is a phase I dose-escalation study of oral PCLX-001, conducted in a multicenter, non-randomized, open-label, non-controlled design. The study is comprised of two parts: Part A (single-agent dose escalation) and Part B (single-agent expansion cohorts).
# Patients are to receive daily oral PCLX-001 on 28-day cycles, beginning with a starting dose of 20 mg.
# […] After dosing, the blood samples (volumes 3 mL) were serially collected into heparinized tubes from a right forearm butterfly cannula. All blood fluid specimens were frozen and later assayed using a validated UHPLC-MS detection method.
# Noncompartmental pharmacokinetic analysis was performed using Phoenix WinNonlin 8.3 using trapezoidal rule and linear up log down methodology. WinNonlin was allowed to pick optimal terminal phases.
# Nonparametric superposition was performed using Phoenix WinNonlin Nonparametric Superposition to predict steady state data based upon Day 1 data for each patient. It utilized the 8- and 24-hour time points for estimation of terminal phase for the purposes of this exercise. We simulated 20 mg daily oral dosing and simulations were conducted out to steady state. Results are show in FIGS. 5, 6, and 7.
# In the non-compartmental analysis, Phoenix WinNonlin 8.3 trapezoidal rule was used, with linear up log down method. This allowed WinNonlin to pick optimal terminal phase (WinNonlin will accept Rsq adjusted to >0.7). Additional analysis to assess adequate fie included visual inspection of data, and AUCextrap should be <15%.
# Phoenix WinNonlin 8.3 trapezoidal rule. Used linear up log down method. Allowed WinNonlin to pick optimal terminal phase (WinNonlin will accept Rsq adjusted >0.7).
# Other analysis to assess adequate fit. Visual inspection of data. AUCextrap should be <15%.
# [1] = 20 mg, Table 1A, Patient 115-002-004 (Patient 3), Day 15, 20 mg oral daily
# [2] = 20 mg, Table 6, Patient 115-002-001, Day 1, 20 mg QD oral, Pantoprazole No
# [3] = 20 mg, Table 6, Patient 115-002-001, Day 15, 20 mg QD oral, Pantoprazole No
# [4] = 20 mg, Table 6, Patient 115-002-002, Day 1, 20 mg QD oral, Pantoprazole No
# [5] = 20 mg, Table 6, Patient 115-002-002, Day 15, 20 mg QD oral, Pantoprazole No
# [6] = 20 mg, Table 6, Patient 115-002-004, Day 1, 20 mg QD oral, Pantoprazole No
# [7] = 20 mg, Table 6, Patient 115-002-004, Day 15, 20 mg QD oral, Pantoprazole No
# [8] = 40 mg, Table 7, Patient 115-002-005, Day 1, 40 mg QD oral, Pantoprazole Yes
# [9] = 40 mg, Table 7, Patient 115-002-005, Day 15, 40 mg QD oral, Pantoprazole Yes
# [10] = 40 mg, Table 7, Patient 115-002-006, Day 1, 40 mg QD oral, Pantoprazole Yes
# [11] = 40 mg, Table 7, Patient 115-002-006, Day 15, 40 mg QD oral, Pantoprazole Yes
# [12] = 40 mg, Table 7, Patient 115-009-001, Day 1, 40 mg QD oral, Pantoprazole No
# [13] = 40 mg, Table 7, Patient 115-009-001, Day 15, 40 mg QD oral, Pantoprazole No
# [14] = 70 mg, Table 8, Patient 115-002-007, Day 1, 70 mg QD oral, Pantoprazole Yes
# [15] = 70 mg, Table 8, Patient 115-002-007, Day 15, 70 mg QD oral, Pantoprazole Yes
# [16] = 70 mg, Table 8, Patient 115-002-008, Day 1, 70 mg QD oral, Pantoprazole Yes
# [17] = 70 mg, Table 8, Patient 115-002-008, Day 15, 70 mg QD oral, Pantoprazole Yes
smiles,measurement,setting,value
"Cc1c(NS(=O)(=O)c2c(Cl)cc(-c3ccnc(N4CCNCC4)c3)cc2Cl)c(CC(C)C)nn1C [PCLX-001, 2,6-dichloro-N-(3-isobutyl-1,5-dimethyl-1H-pyrazol-4-yl)-4-(2-(piperazin-1-yl)pyridin-4-yl)benzene sulfonamide]",half-life,[1],6.86 h
same,Tmax,[1],0.5 h
same,AUC(0-inf),[2],2030 ng·h/mL
same,Cmax,[2],360 ng/mL
same,AUC(0-t),[2],1720 ng·h/mL
same,half-life,[2],8.34 h
same,Tmax,[2],1 h
same,AUC(0-inf),[3],3600 ng·h/mL
same,Cmax,[3],479 ng/mL
same,AUC(0-t),[3],2750 ng·h/mL
same,half-life,[3],10.9 h
same,Tmax,[3],1 h
same,Cmax,[4],142 ng/mL
same,AUC(0-t),[4],1300 ng·h/mL
same,Tmax,[4],4 h
same,AUC(0-inf),[5],2440 ng·h/mL
same,Cmax,[5],243 ng/mL
same,AUC(0-t),[5],2010 ng·h/mL
same,half-life,[5],9.42 h
same,Tmax,[5],2 h
same,AUC(0-inf),[6],1880 ng·h/mL
same,Cmax,[6],326 ng/mL
same,AUC(0-t),[6],1780 ng·h/mL
same,half-life,[6],5.51 h
same,Tmax,[6],2 h
same,AUC(0-inf),[7],2110 ng·h/mL
same,Cmax,[7],356 ng/mL
same,AUC(0-t),[7],1900 ng·h/mL
same,half-life,[7],6.47 h
same,Tmax,[7],0.5 h
same,AUC(0-inf),[8],4900 ng·h/mL
same,Cmax,[8],868 ng/mL
same,AUC(0-t),[8],4430 ng·h/mL
same,half-life,[8],7.5 h
same,Tmax,[8],0.5 h
same,AUC(0-inf),[9],7060 ng·h/mL
same,Cmax,[9],802 ng/mL
same,AUC(0-t),[9],6680 ng·h/mL
same,half-life,[9],5.54 h
same,Tmax,[9],2 h
same,Cmax,[10],7.13 ng/mL
same,AUC(0-t),[10],79.6 ng·h/mL
same,Tmax,[10],4 h
same,Cmax,[11],40.8 ng/mL
same,AUC(0-t),[11],175 ng·h/mL
same,Tmax,[11],4 h
same,AUC(0-inf),[12],12600 ng·h/mL
same,Cmax,[12],1670 ng/mL
same,AUC(0-t),[12],10100 ng·h/mL
same,half-life,[12],10.8 h
same,Tmax,[12],1 h
same,AUC(0-inf),[13],18300 ng·h/mL
same,Cmax,[13],1480 ng/mL
same,AUC(0-t),[13],13700 ng·h/mL
same,half-life,[13],11.9 h
same,Tmax,[13],2 h
same,Cmax,[14],158 ng/mL
same,AUC(0-t),[14],1960 ng·h/mL
same,Tmax,[14],4 h
same,Cmax,[15],602 ng/mL
same,AUC(0-t),[15],8130 ng·h/mL
same,Tmax,[15],4 h
same,Cmax,[16],408 ng/mL
same,AUC(0-t),[16],4550 ng·h/mL
same,Tmax,[16],8 h
same,Cmax,[17],170 ng/mL
same,AUC(0-t),[17],3380 ng·h/mL
